Consider one molecule from patent US20060194814A1, “Benzamide compounds” (priority 2003, published 2006).

For data set [1], the system named is MA-10 mouse Leydig tumor cells. Nature of the data set: dbcAMP-induced progesterone synthesis in MA-10 cells. The format is cell-based. The method, then:
(§1) Culture media were then changed and cells were stimulated with 1 mM dbcAMP and the treatment for 24 to 48 hours. […] The synthesis of 20 —OH progesterone and progesterone in Y1 and MA-10 cell media respectively were measured by RIA (Brown et al., 1992). H295R human adrenal tumor cells were seeded in 48-well plates at 10^5 cells/well and incubated for 24 hours. […] At the end of the incubation time period, cells were treated with 1 mM dbcAMP for 48 hours. Cortisol levels in the media were determined by radioimmunoassay as previously described (Amri et al., 1996).

In data set [2] the test system is HMG-CoA reductase mRNA. Nature of the data set: HMG-CoA reductase mRNA expression by Q-PCR in Hepa1-6 cells. The format is cell-based. The note with it: Hepa1-6 mouse liver hepatoma cells. The method, then:
(§2) After treatment, cells were stimulated with 1 mM dbcAMP for 24 hours. At the end of the incubation, total cell RNA was extracted using RNA STAT-60 (Tel-Test Inc, Friendswood, Tex.) according to the manufacturer's instructions. HMG-CoA reductase mRNA was quantified by Q-PCR using the ABI Prism 7700 sequence detection system (Perkin-Elmer/Applied Biosystems, Foster City, Calif.). RT reaction was performed using TaqMan® Reverse Transcription Reagents with 1 g total RNA and random hexamers as primers for each reaction according to the manufacturer's instructions. For quantifying mouse HMG-CoA reductase mRNA with Q-PCR, the primers were designed according to GenBank Accession Number BC 019782 using PE/AB Primer Express software, which is specifically designed for the selection of primers and probes. The forward primer was 5′-[…]-3′ (22 nucleotides; SEQ ID NO:1) and reverse primer was 5′-[…]-3′ (23 nucleotides; SEQ ID NO:2), respectively. The primers were synthesized by Bio-Synthesis Inc. (Lewisville, Tex.). Reactions were performed in a reaction mixture consisting of a 20 l volume solution containing 10 l SYBR® Green PCR Master Mix and 1 l primers mix (5 M each) with 2 l cDNA.

The target of another data set is T1, P-450scc (Mus musculus, UniProt Q9QZ82).
T1 construct: endogenous in cells; host or cells: Y1 mouse adrenal tumor cells
T1 sequence (Q9QZ82 37-526): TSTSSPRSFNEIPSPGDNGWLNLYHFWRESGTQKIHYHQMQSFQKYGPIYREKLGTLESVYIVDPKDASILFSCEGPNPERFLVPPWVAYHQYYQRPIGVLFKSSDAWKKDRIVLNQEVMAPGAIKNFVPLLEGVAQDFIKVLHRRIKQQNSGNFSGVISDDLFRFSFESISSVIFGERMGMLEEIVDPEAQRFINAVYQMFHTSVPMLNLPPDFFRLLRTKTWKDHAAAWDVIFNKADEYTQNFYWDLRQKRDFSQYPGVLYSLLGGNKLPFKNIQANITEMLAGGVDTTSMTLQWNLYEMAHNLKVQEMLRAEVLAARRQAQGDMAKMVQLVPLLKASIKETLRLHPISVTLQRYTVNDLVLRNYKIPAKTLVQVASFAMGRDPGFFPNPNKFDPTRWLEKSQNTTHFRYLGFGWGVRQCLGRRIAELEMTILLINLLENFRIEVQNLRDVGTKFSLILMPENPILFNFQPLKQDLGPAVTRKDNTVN
As to the kind of experiment: 22R-hydroxycholesterol-induced 20á-hydroxyprogesterone synthesis in Y1 cells. The format is cell-based. The method, then: […] […] The synthesis of 20 —OH progesterone and progesterone in Y1 and MA-10 cell media respectively were measured by RIA (Brown et al., 1992). H295R human adrenal tumor cells were seeded in 48-well plates at 10^5 cells/well and incubated for 24 hours. […] At the end of the incubation time period, cells were treated with 1 mM dbcAMP for 48 hours. Cortisol levels in the media were determined by radioimmunoassay as previously described (Amri et al., 1996).

Data set [3] concerns HIV-1 IIIB strain. Nature of the data set: HIV-1 IIIB replication in HeLa indicator cells (AV-Finder-HIV assay), no pre-medication. The format is cell-based.
The next data set relates to HeLa cells. As to the kind of experiment: MTT cytotoxicity assay after the HIV replication protocol. The format is cell-based, human. Conditions: all concentrations tested, up to 100 μM.
In a further data set the test system is P-450scc enzyme. As to the kind of experiment: Immunoblot of P-450scc expression in Y1 cells. The format is cell-based, mouse. Conditions: immunoblot of cell extracts. The method, then:
At the end of the treatment protocol described above, Y1 cells at 90% confluency were washed 2 times with PBS, sonicated 15 seconds in extraction buffer and centrifuged at 18,500 g for 15 minutes at 4° C. Pellets were resuspended in ice-cold lysis buffer (1% Nonidet 40 in extraction buffer), sonicated briefly, and incubated on ice for 1 hour. After centrifugation (22,500 g×30 min, 4° C.), the supernatant was mixed in sample buffer 6× (0.27 M SDS, 0.6 M dithiothreitol, 0.18 M bromphenol blue in 7 ml of 0.5 M Tris-HCl, pH 6.8, and 3 ml glycerol) and boiled for 5 minutes. Proteins were subjected to SDS-PAGE (4-20% gradient SDS polyacrylamide gel) and electrophoretically transferred onto nitrocellulose membranes. The transblot sheets were blocked with 5% non fat dry milk in 25 mM Tris HCl, pH 7.5, 150 mM NaCl, and 0.1% Tween 20 overnight at 4° C. Membranes were then incubated with appropriately diluted primary antibodies 1:800 for anti-P-450scc (Research Diagnostics Inc. Flanders, N.J.) and 1:200 for anti-StAR (Amri et al., 1996), and the reaction was detected by a peroxidase-conjugated secondary antibody (Santa Cruz Biotechnology, Santa Cruz, Calif.) and enhanced chemiluminescence (Amersham Life, Arlington Heights, Ill.). The densities of the appropriate bands were determined using the OptiQuant Acquisition & Analysis software (Packard BioScience).
On the technique in general: In western blotting, separated proteins are transferred to a membrane and probed.

The test system of data set [4] is HMG-CoA reductase mRNA. As to the kind of experiment: HMG-CoA reductase mRNA expression by Q-PCR in Y1 cells. The format is cell-based, mouse. The method, then:
as §2

Data set [5] relates to Y1 mouse adrenal tumor cells. Nature of the data set: dbcAMP-induced 20á-hydroxyprogesterone synthesis in Y1 cells. The format is cell-based. Conditions: Y1 cells. The method, then: as §1
Data set [6] deals with HIV-1 IIIB strain. Nature of the data set: HIV-1 IIIB replication in HeLa cells, 48 hours pre-medication. The format is cell-based. Conditions: 48 hours pretreatment; all concentrations tested.
A further data set relates to Y1 cells. As to the kind of experiment: dbcAMP and mevalonate-supported 20á-hydroxyprogesterone formation in Y1 cells. The format is cell-based, mouse. More on the design: dose or concentration left out as unconfirmed. Conditions: procaine. The protocol: as §1

Structures can show the parent of a compound that is named as a salt.

On to `CCN(CC)CCOC(=O)c1ccc(N)cc1` [SP01, procaine HCl], for which the “effect on dbcAMP-induced progesterone synthesis” value in data set [1] was “did not affect”. Further, the “effect on dbcAMP-induced HMG-CoA reductase mRNA levels” value is recorded as “inhibited” in the data set with HMG-CoA reductase mRNA [2] and “reduced in a dose-dependent manner” in the data set with HMG-CoA reductase mRNA [4] (pretreatment for 24 hours). Besides, the “effect on 22R-hydroxycholesterol-induced steroidogenesis” value on P-450scc is “did not inhibit”. Besides, the “efficacy in reducing HIV-1 IIIB replication compared to AZT, ddI or 3TC” value in the data set with HIV-1 IIIB strain [3] (human cells) is recorded as “efficacy higher than AZT, ddI or 3TC”. In the data set with HIV-1 IIIB strain [3] (no pre-medication, concentrations up to 0.1 μM), the “efficacy on HIV-1 IIIB viral replication compared to 3TC” value is given as “higher efficacy than the classical antiviral agent 3TC”. For the same molecule, the “cell toxicity (MTT)” value with HeLa cells was “devoid of cell toxicity”. In the data set on P-450scc enzyme, the “effect on expression of the P-450scc enzyme” value is “did not modify”. The “earliest treatment time inhibiting dbcAMP-induced HMG-CoA reductase mRNA expression” value in the data set on HMG-CoA reductase mRNA [4] (time-course) was found to be 6 h. The “effect on dbcAMP-induced 20á-hydroxyprogesterone production” value in [5] was “decreased in a dose-dependent manner”. Besides, in data set [5], the “lowest concentration inhibiting cAMP-induced steroid synthesis” value amounted to 0.1 µM. Further, in data set [5] (procaine at 1 M / 1 iM), the “inhibition of dbcAMP-stimulated steroid formation” value is on record as 90%. Moreover, the “inhibition of HIV replication” value with HIV-1 IIIB strain [6] was 75%. The “effect on dbcAMP and mevalonate-supported 20á-hydroxyprogesterone formation” value with Y1 cells is recorded as “did not inhibit”.
